These results are taken from US9776990B2, “Isoindolone derivatives” (AbbVie Inc., priority 2012, dated 2017).

Marks after values point to notes of the source that are not given here.

Experiment [1] concerns the target BRD4 (BDI_K57-E168) (Homo sapiens (Human), UniProt O60885). As to the kind of experiment: TR-FRET bromodomain binding assay, BRD4 first bromodomain. The conditions noted are these: His-tagged BD1, 100 nM Alexa647 probe. In a few lines: (§1)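 His-tagged BRD4 BD1 or BD2 (8 nM) with Eu-anti-His antibody (1 nM) and Alexa647-labelled BET-inhibitor probe (100 nM BDI, 30 nM BDII); 50 μM−0.85 nM compound, 2% DMSO, phosphate buffer pH 6.0, 1 h at room temperature. TR-FRET IC50 by 4-parameter fit, converted to Ki using probe Kd.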
(In TR-FRET formats the signal depends on donor and acceptor labels being close together.)

Experiment [2] concerns the target BRD4 (BDII_E352-M457) (Homo sapiens (Human), UniProt O60885). As to the kind of experiment: TR-FRET bromodomain binding assay, BRD4 second bromodomain. The conditions noted are these: His-tagged BD2, 30 nM Alexa647 probe. An outline of the steps: as §1
Experiment [3] deals with OPM2. As to the kind of experiment: Proliferation panel assay, OPM2. The experiment is classed as cell-based. The conditions noted are these: Homo sapiens, OPM-2, 120 h; Multiple Myeloma, OPM2, 5 days; read-out: Cellular Proliferation EC50. On the procedure:
The impact of compounds of the Examples on cancer cell proliferation was determined using the breast cancer cell line MX-1 (ATCC) in a 3-day proliferation assay. MX-1 cells were maintained in RPMI supplemented with 10% FBS at 37 C.° and an atmosphere of 5% CO2. For compound testing, MX-1 cells were plated in 96-well black bottom plates at a density of 5000 cells/well in 90 μl of culture media and incubated at 37° overnight to allow cell adhesion and spreading. Compound dilution series were prepared in DMSO via a 3-fold serial dilution from 3 mM to 0.1 μM. […]
Luminescence readings from the Cell Titer Glo assay were normalized to the DMSO treated cells and analyzed using the GraphPad Prism software with sigmoidal curve fitting to obtain EC50s. The minimum significant ratio (MSR) was determined to evaluate assay reproducibility (Eastwood et al., (2006) J Biomol Screen, 11: 253-261). The overall MSR was determined to be 2.1 and a moving MSR (last six run MSR overtime) has been <2.
The compound of Example 40 was tested for its impact on proliferation of a panel of cancer cell line types (with specific cell lines tested) as set out in (Table 2). […] Cell proliferation data were analyzed as described above in the MX-1 proliferation assay to obtain the EC50 for the compounds reported in Table 2.

The subject of experiment [4] is Ramos human B cell lymphoma cancer xenograft. As to the kind of experiment: Xenograft tumor growth inhibition assay, Ramos. The experiment is classed as in vivo, mice. The conditions noted are these: 100 mg/kg/day PO. On the procedure: (§2) The effect of the compound of Example 40 to inhibit the growth of Ramos, OPM-2, MX-1, MV4-11, and HT1080 xenograft tumors was evaluated. Briefly, 0.5×10^6 human cancer cells (HT1080), 1×10^6 human cancer cells (Ramos), 5×10^6 human cancer cells (OPM-2, MV4-11) or 1:10 tumor brie (MX-1) (in S-MEM (MEM, Suspension, no Calcium, no Glutamine)) (Life Technologies Corporation) were inoculated subcutaneously into the right hind flank of female SCID or SCID-beige (MV4-11, HT1080) mice (Charles Rivers Labs) on study day 0. Compound was formulated in 2% EtOH, 5% Tween-80, 20% PEG-400, 73% HPMC (Ramos, OPM-2 and MX-1) or 5% DMSO, 5% EtOH, 30% PEG400, 60% Phosal 53 (MV4-11, HT1080). Administration of compound was initiated at the time of size match on day 8 (HT1080), day 17 (MX-1), or day 18 (Ramos, MV4-11, OPM-2). The tumors were measured by a pair of calipers twice a week starting at the time of size match and tumor volumes were calculated according to the formula V=L×W^2/2 (V: volume, mm^3; L: length, mm. W: width, m) Tumor volume was measured for the duration of the experiment until the mean tumor volume in each group reached an endpoint of >1000 mm^3.

Experiment [5] deals with MX-1 human breast cancer xenograft. The experiment in a line: Xenograft tumor growth inhibition assay, MX-1. The experiment is classed as in vivo, mice. The settings on record: MX-1 xenograft; for % TGI (tumor growth inhibition): QDx14, based on day 38; for % TGD (tumor growth delay): QDx14, endpoint 1000 mm^3. How it is done:
as §2

`Cc1[nH]c(-c2cc(NS(C)(=O)=O)ccc2Oc2ccccc2)c2c1C(=O)CCC2` [Example 40, N-[3-(3-methyl-4-oxo-4,5,6,7-tetrahydro-2H-isoindol-1-yl)-4-phenoxyphenyl]methanesulfonamide]: the Ki (as a rule, the equilibrium dissociation constant of an inhibitor or competing ligand from its target) in experiment [1] was determined as 15 nM; in experiment [2], 43 nM. Moreover, the EC50 in experiment [3] turned out to be 18 nM. Besides, the “% TGI (tumor growth inhibition)” value in experiment [4] (BID (5on 3off) x 2, based on day 31) was 35*** %; in experiment [4] (QDx14, based on day 31) it was 30* %; in experiment [5] (group 2, 100 mg/kg/day PO), 78*** %; in experiment [5] (group 3, 30 mg/kg/day PO) it was 48*** %; in experiment [5] (group 4, 10 mg/kg/day PO), 18%; in experiment [5] (group 5, 100 mg/kg/day PO), 80*** %. Also, the “% TGI (tumor growth inhibition)” value in experiment [5] (group 6, 20 mg/kg/day PO) is recorded as 30* %. The “% TGD (tumor growth delay)” value was 40** % in experiment [4] (BID (5on 3off) x 2, endpoint 1000 mm^3); 40* % in experiment [4] (QDx14, endpoint 1000 mm^3); 29*** % in experiment [5] (group 2, 100 mg/kg/day PO); 22*** % in experiment [5] (group 3, 30 mg/kg/day PO); 17% in experiment [5] (group 4, 10 mg/kg/day PO); 28*** % in experiment [5] (group 5, 100 mg/kg/day PO). Besides, the “% TGD (tumor growth delay)” value in experiment [5] (group 6, 20 mg/kg/day PO) is 19* %.
